row,melting point,SMILES
1,117 °C,O=C(OCc1ccccc1)c1cc(OCc2ccccc2)c(OCc2ccccc2)cn1
2,> 300 °C,CC(=NNc1ccc(C2=NNC(=O)CC2)cc1)c1cscn1
3,189 to 190 °C,CNc1nc(C)c(-c2ccnc(Nc3cccc(S(=O)(=O)NCCO)c3)n2)s1
4,125 to 128 °C,O=C(c1ccccc1F)c1cc(Cl)ccc1C(=O)C(Br)CN1C(=O)c2ccccc2C1=O (stereo not given)
5,84 °C,Cc1cc(C(=O)NCOC(=O)CO)ncc1C(c1cc(F)ccc1F)S(=O)(=O)c1ccc(F)cc1 (stereo not given)
6,179 to 180 °C,COC(=O)c1cc(Cl)ccc1NC(=O)c1cc(OC)c(OC)c(OC)c1
7,122 to 124 °C,N#CCN1CCc2ccc3c(c21)CCO3
8,177 to 178 °C,O=C(Nc1ccc(CN2CCCCC2)cc1)c1ccc2ccc(-c3ccccc3)cc2c1
9,186 to 187 °C,N#Cc1cc(Cn2cncn2)cc(-c2ccc(O)cc2)c1
10,210 to 213 °C,CC(=O)Oc1ccc2nc(NC(=O)Nc3ccccc3)sc2c1
11,214 to 215 °C,O=C(c1cc2ccc(O)cc2[nH]1)N1CCC(Cc2ccccc2)CC1
12,142 to 144 °C,CCc1ccc(Cl)c(CC)c1NS(=O)(=O)c1cc(S(=O)(=O)Nc2c(CC)ccc(Cl)c2CC)c2cc(O)ccc2c1
13,219 °C,CC1OC(n2cnc3c(Nc4ccccc4)ccnc32)C(O)C1O (stereo not given)
14,145 to 146 °C,NS(=O)(=O)C1Cc2ccccc2CC1=O (stereo not given)
15,92 to 99 °C,O=C(O)Cc1ccc(OCCNC(=O)C2Cc3ccccc3N2S(=O)(=O)c2ccc(-c3ccc(F)cc3F)cc2)cc1 (stereo not given)
16,159 to 162 °C,CN1C(=O)c2cccc(S(=O)(=O)Cl)c2C1=O
17,82 to 84 °C,CCC(CC)Nc1cc(C)nc(Cl)c1C(=O)OC
18,194 °C,COc1ccc2nccc(CCC[C@@H]3CCN(CCCc4ccccc4F)C[C@@H]3C(=O)O)c2c1
19,82 to 84.5 °C,CC(=O)CS(=O)CCc1ccc2c(c1)OCO2 (stereo not given)
20,154 to 155 °C,C[C@@H]1CC[C@H](C(=O)O)Cc2onc(-c3ccc(Cl)cc3)c21 (relative stereo)
21,176 °C,CCOC(=O)c1csc(C)c1S(=O)(=O)NC(=O)n1nc(OC)n(C)c1=O
22,76 to 80 °C,COC(=O)CN(C)C(=O)CC(Cc1cccc2ccccc12)C(=O)NC(Cc1c[nH]cn1)C(=O)NC(CC(C)C)C(O)C(=O)OC(C)C (mixture of isomers)

row,melting point,SMILES
1,83 to 88 °C,CC(C)CCC1CCCCCc2c1oc(=O)c(C(c1ccccc1)C1CC1)c2O (stereo not given)
2,233 to 234 °C,CC(C)(CCC#N)c1ccc(C(=O)Nc2cn3cc(C(F)(F)F)ccc3n2)cc1
3,153 to 155 °C,CC(O)Cn1nc2c3c(cc(O)cc31)CCC2 (stereo not given)
4,111 to 115 °C,CCCCCCOc1cc(O)c(-c2nc(-c3ccc(C)cc3C)nc(-c3ccc(C)cc3C)n2)cc1C(C)(C)c1ccccc1
5,88 to 89 °C,O=C(O)CCCC[C@@H]1SC[C@H]2[C@@H]1N(Cc1ccccc1)C(=O)N2Cc1ccccc1
6,54 to 55 °C,CC(C)(C)C(=O)OCOC(=O)COc1ccc(Cc2ccc(Cl)cc2)cc1
7,150 to 151 °C,CCOC(=O)Nc1c(OC)cc(CC(C#N)=CNc2ccccc2)cc1OC
8,68 to 72 °C,COc1ccc2c(C(=O)c3ccc(OC4CCCC4N4CCCCC4)cc3)c(-c3ccc(OCCN4CCCC4)cc3)sc2c1 (stereo not given)
9,230 °C,CCN(CC1Cc2ccccc2N1CC)C(=N)N (stereo not given)
10,100 to 101 °C,CCOC(=O)c1nn(-c2ccc(F)cc2)c2c1CCCC2
11,76 to 77 °C,C=CCOC(=O)C(C(=O)NC1C(=O)N2C1SC(C)(C)C2C(=O)OCC=C)=C1SCCS1 (stereo not given)
12,97.2 °C,CC(C)(C)OC(=O)N1CCO[C@@H](c2ccc(Br)cc2)C1
13,129 to 130 °C,CCn1cnc2c(Nc3cccc(C(F)(F)F)c3)nc(Cl)nc21
14,61 to 62 °C,COCCN1CCN(C(C)c2ccc(-c3ccc(F)cc3)cc2)CC1 (stereo not given)
15,61 to 61.5 °C,CCOC(=O)c1c(C(C)C)csc1N
16,58 to 60 °C,CN1C(=O)c2ccccc2OC1(C)COc1ccc(CC2SC(=O)NC2=O)cc1 (stereo not given)
17,220 °C,COc1cc(N)c(Cl)cc1C(=O)NN1CCN(C)CC1
18,265 to 266 °C,NC(=O)c1cc(C(=O)O)c2c(c1)C(C(=O)O)CCN2 (stereo not given)
19,69 to 70 °C,Cc1cc(C)cc(SCCC(=O)O)c1
20,124 to 125 °C,CC(C)C1COc2ccccc2O1 (stereo not given)
21,123 °C,CN(Cc1ccc(N)cc1)C1CCN(c2ccc(N)cc2)CC1

# Second part, the compound before the results:
row,SMILES,melting point
1,O=C(OCc1ccccc1)C1CCCc2c1c1ccccc1n2C(=O)c1ccc(Cl)cc1 (stereo not given),123 to 124 °C
2,CCOC(=O)c1ccc(-c2ccc(-c3ccccc3)cc2-c2ccc3c(c2)C(C)(C)CCC3(C)C)cc1O,< 70 °C
3,COC(=O)Cc1ccc(O)c(F)c1,32 to 34 °C
4,CCOc1csc(C2OC(=O)NC2=O)c1 (stereo not given),144 to 146 °C
5,CC12C=CC(=O)CC1CCC1C2CCC2(C)C1CCC2(C)O (stereo not given),140 to 142 °C
6,CS(=O)(=O)c1ccc2[nH]cc(CCN)c2c1,134 to 138 °C
7,CCC(S)=C1SC(=S)N(c2ccc(Cl)cc2)C1=O,163 to 165 °C
8,Cc1ccc(CSc2nnc(-c3ccc4c(c3)CCO4)o2)cc1,190 to 191 °C
9,CCCC1NS(=O)(=O)N(CCl)C1=O (stereo not given),62 to 63.5 °C
10,CC(C)=CCN1CC(NC(=O)Nc2cccc(C(=O)O)c2)C(=O)N(CC(=O)c2ccccc2C)c2cc(C)ccc21 (stereo not given),129 to 131 °C
11,Clc1ccc(N2CCN(c3ccccn3)CC2)nn1,195 °C
12,COc1cc2c(Nc3ccc4c(c3)NCC4)c(C#N)cnc2cc1OCCCc1ccncc1,100 to 105 °C
13,N#Cc1cc(N)ccc1N1CCN(C2CCSCC2)CC1,109 °C
14,CCOC(=O)c1cc(-c2ccccc2)oc1-c1ccc(OC)c(OC)c1,68 °C
15,COc1ccc(N2CCOCC2)c2sc(-c3nc(-c4ccccc4)c[nH]3)nc12,226 to 233 °C
16,C=CCNc1ccc(C(=O)O)cc1[N+](=O)[O-],195 to 200 °C
17,Nc1cc(F)cc2cc(C(=O)NCC(F)(F)C(F)(F)C(F)(F)F)cnc12,202 to 204 °C
18,CCOC(=O)c1c(C(C)C)c2ccccn2c1-c1ccc(F)cc1,51 to 52 °C
19,O=P(O)(O)C(O)(Cn1ccnc1)P(=O)(O)O,235 to 241 °C

row,SMILES,melting point
1,O=C(O)CCC(=NO)c1ccc(-c2ccc(Br)cc2)cc1,175 to 176 °C
2,OC1CSC(Oc2cncc(-c3ccnc(Cl)c3)c2)C(O)C1O (stereo not given),204 °C
3,CCCCNC(=O)Cc1ccc2c(c1)c(Cc1ccc(C(=O)NS(=O)(=O)c3ccccc3C)cc1OC)cn2CCC,100 to 102 °C
4,COc1ccc2c(c1OC)CCCC2c1c[nH]cn1 (stereo not given),160 °C
5,CC(C)(C(=O)O)c1ccsc1,78 to 80.5 °C
6,COc1ccc(Nc2nc(Nc3ccc(OC)c(F)c3)nc(OCC3CCCCC3)n2)cc1F,181 °C
7,OC(CNCCNc1ccccc1Cl)COc1cccc2[nH]ncc12 (stereo not given),129 to 130 °C
8,CCOC(=O)c1cccc2c1C(=O)N(C)Cc1c(C(=O)OCC)ncn1-2,136 to 140 °C
9,Cc1nc2c([N+](=O)[O-])cc(S(=O)(=O)N(C)C)cc2n1C,194 to 196 °C
10,O=C1Nc2ccccc2C(c2ccccc2)N1CCO (stereo not given),141 °C
11,Cc1cc(SCc2ccnc3sc(-c4ccc(C(F)(F)F)cc4)nc23)ccc1OCC(=O)O,82 to 85 °C
12,CCC1Cc2c(N3CCOCC3)c(F)cc3c(=O)c(C(=O)O)cn1c23 (stereo not given),275 to 278 °C
13,O=C(c1ccc(F)cc1)N1Cc2c(-c3ccc(F)cc3)ncn2-c2ccccc21,230 to 231 °C
14,CN(C)/C=c1\c2ccccc2c2[nH]c(=O)c3nccn3c12,293 °C
15,COC(=O)c1c[nH]c(C=O)c1,97 to 99 °C
16,COC[C@@H]1CCCN1S(=O)(=O)c1ccc2c(c1)C(=O)C1=NCCCN12,138 to 141 °C
17,OCCCc1cc(-c2ccc(Cl)cc2)n(-c2c(Cl)cncc2Cl)n1,108 to 110 °C
18,CCOc1cc(N)c(Cl)cc1C(=O)[NH+]([O-])CC1CN(Cc2ccccc2Cl)CCO1 (stereo not given),154 to 157 °C
19,COCc1c(-c2ccncc2)[nH]c(-c2ccncc2)c1C(C)=O,154 to 156 °C

row,SMILES,melting point
1,CC(C)(CO)NC(=O)c1nn(-c2c(F)cc(F)cc2F)c2c1C1CCC2C1 (stereo not given),122 to 125 °C
2,O=C(OC1=CC(O)=CC(C=Cc2ccc(O)cc2)(C(=O)c2cc(O)c(O)c(O)c2)C1)c1cc(O)c(O)c(O)c1 (stereo not given),210 to 212 °C
3,Cn1cc(Br)c(=O)c(-c2cccc(C(F)(F)F)c2)c1,167 to 169 °C
4,O=C1CCc2cc(-n3ccnc3)ccc21,148 to 150 °C
5,N#Cc1nn(-c2c(Cl)cc(C(F)(F)F)cc2Cl)c(NCc2ccncc2)c1SCF,204 °C
6,COc1ccc(Nc2nccc(-c3cccs3)n2)cc1,158 to 160 °C
7,COc1ccc(-c2cc3ncnc(Nc4ccc5[nH]ccc5c4)c3s2)cn1,243 to 249 °C
8,N#CCCN1CCN(P(=S)(N2CCN(CCC#N)CC2)N2CCN(CCC#N)CC2)CC1,122 °C
9,Cn1ncc2[nH]c3cccc(-c4cccc(O)c4)c3c(=O)c21,> 300 °C
10,Cc1ccc(-c2c(C=O)n(C)c(=O)c3ncccc23)cc1,282 to 284 °C
11,COC(=O)c1nc2n(n1)-c1cc(Cl)ccc1N(c1ccc(Cl)cc1Cl)C2,264 to 266 °C
12,COc1cc2c(Nc3ccc(Cl)cc3F)ncnc2cc1OCCNC(=O)OC(C)(C)C,190 to 191 °C
13,Cc1nc2n(C)nc(C)n2c(=O)c1CCCl,140 °C
14,CCc1sc(N2C(=O)c3ccccc3C2=O)c(C(=O)c2ccc(Cl)cc2)c1C,115 to 117 °C
15,CCCCC[C@H]1CC[C@H](C=CCCc2ccc(O)cc2)CC1,89 to 90 °C
16,CCOC(=O)C(C(C)=O)=C(N)C(F)(F)F,63 to 65 °C
17,CC(=O)OCC1OC(n2cnc3c(Cl)nc(N)nc32)C(OC(C)=O)C1OC(C)=O (stereo not given),58 to 60 °C
18,CNC(=S)C1=CC(CF)(CF)Oc2cc(Cl)c(Cl)cc21,142 to 143 °C
19,Cc1ccc(C(=O)Nc2ccccc2O)c(F)c1,195 to 197 °C

# Source: a melting point compilation (Tetko et al.; mined from patent text by program, amines drawn as free bases though some values may be those of a salt)
